{"source": "patent US20050131077A1", "about": "“Preventing or reducing the adhesion of microorganisms with phytanetriol” (priority 2003, published 2005)", "system": "Staphylococcus aureus", "test": "Microbial antiadhesion test on reconstructed epidermis", "assay_type": "cell-based", "protocol": "Before bacterial adhesion, the reconstructed epidermis is placed in contact for 2 hours with the composition of Example 1 at 37° C. 1 ml of bacterial suspension of Staphylococcus aureus at a concentration of 10^7 microorganisms/ml in Tryptone salt is then added thereto. After incubation for 24 hours at 37° C., the bacterial suspension is emptied out and five rinsings are performed with 1 ml of sterile distilled water. The reconstructed epidermis detached from its support is then ground using a processor in 18 ml of Tryptone salt. […] The adherent and viable cells are then counted. […]\nA mixture of bacteria/test product, in the same ratio as in the antiadhesion test, is brought into contact for 24 hours at 37° C. The microorganisms are counted by tenfold dilution in Tryptone salt and inoculation, using a scraper, of 100 μl on Trypticase soybean agar. The colonies are counted after incubation for 24 hours at 37° C.\nThe quantitative results correspond to a reduction in the decimal logarithm of the mean number of viable Staphylococcus aureus adherent on the reconstructed epidermis after treatment with the test composition or test molecules, relative to the decimal logarithm of the mean number of viable Staphylococcus aureus adherent on the reconstructed epidermis after treating with water under the same conditions. […]"}
{"smiles": "CC(C)CCCC(C)CCCC(C)CCCC(C)(O)C(O)CO", "note": "(centres unmarked) [Pure phytanetriol, 3,7,11,15-tetramethyl-1,2,3-hexadecanetriol]", "values": [{"measurement": "Activity Antiadhesion, Quantitative results: reduction in the decimal logarithm of the mean number of viable Staphylococcus aureus adherent on the reconstructed epidermis relative to water", "setting": "reconstructed epidermis pretreated 2 hours at 37° C., S. aureus 10^7 microorganisms/ml, incubation 24 hours at 37° C., relative to treatment with water, significant if difference greater than 0.5 log", "value": "−1.9", "unit": "log"}, {"measurement": "Activity Antiadhesion, Qualitative results", "setting": "term as a function of Log reduction of adhesion after 24 hours relative to the same test using water", "value": "Good (between 1.5 and 2 log reduction relative to water)"}]}
